In ChEMBL document CHEMBL5724914, “Linking interpersonal differences in gut microbiota composition and drug biotransformation activity” (2024):

Tests used:
[1] = (§1) The drug is tested on Z-019 corresponding to rat gut metagenome with ENA study accession number: PRJEB37062 and ENA sample accession number: ERS12561818 for biotransformation under anaerobic condition. The drug concentrations were measured over 9 timepoints collected between 0 and 24 hours of incubation by liquid-chromatography-coupled mass spectrometry (LC–MS); conditions: 2 µM
[2] = as §1, with “Z-014” for “Z-019”, “ERS12561814” for “ERS12561818”; conditions: 2 µM
[3] = as §1, with “Z-012” for “Z-019”, “to” for “to rat gut”, “ERS12561812” for “ERS12561818”; conditions: 2 µM
[4] = as §1, with “Z-008” for “Z-019”, “to” for “to rat gut”, “ERS12561808” for “ERS12561818”; conditions: 2 µM
[5] = as §1, with “on Z-006” for “on Z-019”, “to mouse” for “to rat”, “number: ERS12561806” for “number: ERS12561818”; conditions: 2 µM
[6] = as §1, with “on Z-002” for “on Z-019”, “to rabbit” for “to rat”, “number: ERS12561802” for “number: ERS12561818”; conditions: 2 µM
[7] = as §1, with “on WLS-310” for “on Z-019”, “to human” for “to rat”, “number: ERS12561785” for “number: ERS12561818”; conditions: 2 µM
[8] = as §1, with “on WLS-170” for “on Z-019”, “to human” for “to rat”, “number: ERS12561762” for “number: ERS12561818”; conditions: 2 µM
[9] = as §1, with “on WLS-098” for “on Z-019”, “to human” for “to rat”, “number: ERS12561754” for “number: ERS12561818”; conditions: 2 µM
[10] = as §1, with “on WLS-052” for “on Z-019”, “to human” for “to rat”, “number: ERS12561747” for “number: ERS12561818”; conditions: 2 µM
[11] = as §1, with “on WLS-039” for “on Z-019”, “to human” for “to rat”, “number: ERS12561746” for “number: ERS12561818”; conditions: 2 µM
[12] = as §1, with “on WLS-010” for “on Z-019”, “to human” for “to rat”, “number: ERS12561743” for “number: ERS12561818”; conditions: 2 µM
[13] = human gut metagenome, 24 h, 2 µM
[14] = human gut metagenome, 24 h, 2 µM; remark: listed apart in the source
[15] = human gut metagenome, 24 h, 2 µM; remark: listed apart in the source
[16] = human gut metagenome, 24 h, 2 µM; remark: listed apart in the source
[17] = human gut metagenome, 24 h, 2 µM; remark: listed apart in the source
[18] = human gut metagenome, 24 h, 2 µM; remark: listed apart in the source
[19] = human gut metagenome, 24 h, 2 µM; remark: listed apart in the source
[20] = human gut metagenome, 24 h, 2 µM; remark: listed apart in the source
Note: call rule not given here.

SMILES | Bacterial Biotransformation [1] | Bacterial Biotransformation [2] | Bacterial Biotransformation [3] | Bacterial Biotransformation [4] | Bacterial Biotransformation [5] | Bacterial Biotransformation [6] | Bacterial Biotransformation [7] | Bacterial Biotransformation [8] | Bacterial Biotransformation [9] | Bacterial Biotransformation [10] | Bacterial Biotransformation [11] | Bacterial Biotransformation [12] | Bacterial Biotransformation [13] | Bacterial Biotransformation [14] | Bacterial Biotransformation [15] | Bacterial Biotransformation [16] | Bacterial Biotransformation [17] | Bacterial Biotransformation [18] | Bacterial Biotransformation [19] | Bacterial Biotransformation [20]
CC(=O)O[C@]1(C(C)=O)CC[C@H]2[C@@H]3C=C(C)C4=CC(=O)CC[C@]4(C)[C@H]3CC[C@@]21C [MEGESTROL ACETATE] | Compound NOT metabolized | Compound NOT metabolized | Compound metabolized | Compound NOT metabolized | Compound metabolized | Compound metabolized | Compound metabolized | Compound metabolized | Compound metabolized | Compound metabolized | Compound metabolized | Compound metabolized | Compound metabolized | Compound metabolized | Compound metabolized | Compound metabolized | Compound metabolized | Compound metabolized | Compound metabolized | Compound metabolized
CC12CC3CC(C)(C1)CC(N)(C3)C2 [MEMANTINE] | Compound NOT metabolized | Compound NOT metabolized | Compound NOT metabolized | Compound NOT metabolized | Compound NOT metabolized | Compound NOT metabolized | Compound NOT metabolized | Compound metabolized | Compound NOT metabolized | Compound NOT metabolized | Compound metabolized | Compound NOT metabolized | Compound NOT metabolized | Compound NOT metabolized | Compound NOT metabolized | Compound NOT metabolized | Compound NOT metabolized | Compound NOT metabolized | Compound NOT metabolized | Compound NOT metabolized
Cc1cc(C)cc(OCC2CNC(=O)O2)c1 (stereo not given) [METAXALONE] | Compound NOT metabolized | Compound NOT metabolized | Compound NOT metabolized | Compound NOT metabolized | Compound NOT metabolized | Compound NOT metabolized | Compound metabolized | Compound metabolized | Compound metabolized | Compound metabolized | Compound metabolized | Compound metabolized | Compound metabolized | Compound metabolized | Compound metabolized | Compound metabolized | Compound metabolized | Compound metabolized | Compound NOT metabolized | Compound metabolized
COC(=O)C(c1ccccc1)C1CCCCN1 (stereo not given) [METHYLPHENIDATE] | Compound NOT metabolized | Compound NOT metabolized | Compound NOT metabolized | Compound NOT metabolized | Compound NOT metabolized | Compound metabolized | Compound NOT metabolized | Compound metabolized | Compound NOT metabolized | Compound NOT metabolized | Compound NOT metabolized | Compound NOT metabolized | Compound NOT metabolized | Compound NOT metabolized | Compound NOT metabolized | Compound NOT metabolized | Compound metabolized | Compound NOT metabolized | Compound NOT metabolized | Compound NOT metabolized
CN1CCN2c3ccccc3Cc3ccccc3C2C1 (stereo not given) [MIANSERIN] | Compound NOT metabolized | Compound NOT metabolized | Compound NOT metabolized | Compound NOT metabolized | Compound NOT metabolized | Compound metabolized | Compound NOT metabolized | Compound metabolized | Compound metabolized | Compound NOT metabolized | Compound metabolized | Compound NOT metabolized | Compound NOT metabolized | Compound metabolized | Compound metabolized | Compound NOT metabolized | Compound metabolized | Compound NOT metabolized | Compound NOT metabolized | Compound metabolized
CC#C[C@]1(O)CC[C@H]2[C@@H]3CCC4=CC(=O)CCC4=C3[C@@H](c3ccc(N(C)C)cc3)C[C@@]21C [MIFEPRISTONE] | Compound NOT metabolized | Compound NOT metabolized | Compound NOT metabolized | Compound metabolized | Compound metabolized | Compound metabolized | Compound metabolized | Compound metabolized | Compound NOT metabolized | Compound metabolized | Compound NOT metabolized | Compound metabolized | Compound NOT metabolized | Compound NOT metabolized | Compound metabolized | Compound metabolized | Compound metabolized | Compound NOT metabolized | Compound NOT metabolized | Compound metabolized
CC(C)(C)NCC(O)COc1cccc2c1CC(O)C(O)C2 (stereo not given) [NADOLOL] | Compound NOT metabolized | Compound NOT metabolized | Compound NOT metabolized | Compound NOT metabolized | Compound NOT metabolized | Compound metabolized | Compound metabolized | Compound metabolized | Compound metabolized | Compound NOT metabolized | Compound NOT metabolized | Compound NOT metabolized | Compound NOT metabolized | Compound NOT metabolized | Compound NOT metabolized | Compound metabolized | Compound NOT metabolized | Compound NOT metabolized | Compound NOT metabolized | Compound metabolized
CC(C)[C@H]1CC[C@H](C(=O)N[C@H](Cc2ccccc2)C(=O)O)CC1 [NATEGLINIDE] | Compound NOT metabolized | Compound NOT metabolized | Compound NOT metabolized | Compound NOT metabolized | Compound NOT metabolized | Compound metabolized | Compound metabolized | Compound metabolized | Compound metabolized | Compound metabolized | Compound NOT metabolized | Compound metabolized | Compound metabolized | Compound metabolized | Compound metabolized | Compound metabolized | Compound metabolized | Compound metabolized | Compound metabolized | Compound metabolized
